Test results published in patent US20010047018A1 (published 2001).

| SMILES | melting point |
| --- | --- |
| CC(=O)NC[C@H]1CN(c2ccc3c(c2)CS(=O)(=O)N3CCF)C(=O)O1 | 84 to 87 °C (dec.) |
| CC(=O)NC[C@H]1CN(c2ccc3c(c2)CS(=O)(=O)N3CC#N)C(=O)O1 | 124 to 126 °C (dec.) |
| CC(=O)NC[C@H]1CN(c2ccc3c(c2)CS(=O)(=O)N3C)C(=O)O1 | 84 to 86 °C |
| CC(=S)NC[C@H]1CN(c2ccc3c(c2)CS(=O)(=O)N3CCF)C(=O)O1 | 90 to 93 °C (dec.) |
